# Laboratory results reported in ChEMBL document CHEMBL4033638, “Effect of natural and semi-synthetic cadinanes from Heterotheca inuloides on NF-κB, Nrf2 and STAT3 signaling pathways and evaluation of their in vitro cytotoxicity in human cancer cell lines” (Bioorg Med Chem, 2017).
# Calls of active or inactive are those of the source. The rule behind the calls is not given here.
# What was measured:
# HaCaT [1] = assay: Antioxidant activity in human HaCaT cells assessed as inhibition of TBHP-induced ROS accumulation by measuring ROS level preincubated with cells followed by TBHP addition by CM-H2DCFDA dye-based fluorescence assay relative to control; type: functional; parameters: scale not given: the % may be the effect or the level left
# [2] = Inhibition of TNFalpha-stimulated NFkappaB (unknown origin) expressed in mouse NIH-3T3-KBFLuc cells at 50 uM after 6 hrs by luciferase reporter gene assay relative to control; type: cell-based; settings: Homo sapiens
# [3] = biological target: T1, Nuclear factor erythroid 2-related factor 2 (Homo sapiens) (UniProt Q16236); assay: Activation of Nrf2 in human HaCaT-ARE-Luc cells at 50 uM after 6 hrs by luciferase reporter gene assay relative to control; type: cell-based
# T1 sequence (whole entry): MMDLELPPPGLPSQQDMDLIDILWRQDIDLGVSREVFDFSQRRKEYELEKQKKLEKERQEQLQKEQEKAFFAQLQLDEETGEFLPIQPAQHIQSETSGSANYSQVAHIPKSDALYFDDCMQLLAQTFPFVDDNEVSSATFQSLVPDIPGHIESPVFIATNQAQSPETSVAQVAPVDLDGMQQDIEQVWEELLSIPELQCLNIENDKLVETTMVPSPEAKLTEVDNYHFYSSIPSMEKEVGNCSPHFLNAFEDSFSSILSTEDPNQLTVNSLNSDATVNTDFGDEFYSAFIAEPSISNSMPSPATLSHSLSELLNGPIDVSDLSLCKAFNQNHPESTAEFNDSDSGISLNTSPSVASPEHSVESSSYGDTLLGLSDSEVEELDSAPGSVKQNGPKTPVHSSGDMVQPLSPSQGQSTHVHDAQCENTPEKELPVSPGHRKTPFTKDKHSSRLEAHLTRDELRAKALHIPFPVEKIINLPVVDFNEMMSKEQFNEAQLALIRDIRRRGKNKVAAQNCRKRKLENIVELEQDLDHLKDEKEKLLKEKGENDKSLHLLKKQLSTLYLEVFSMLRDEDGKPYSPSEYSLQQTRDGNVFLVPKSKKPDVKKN
# [4] = biological target: Signal transducer and activator of transcription 3 (Homo sapiens) (UniProt P40763); assay: Inhibition of IFNgamma-stimulated STAT3 (unknown origin) activation expressed in human HeLa cells at 50 uM after 6 hrs by luciferase reporter gene assay relative to control; type: cell-based
# Signal transducer and activator of transcription 3 (Homo sapiens), sequence (P40763 whole entry): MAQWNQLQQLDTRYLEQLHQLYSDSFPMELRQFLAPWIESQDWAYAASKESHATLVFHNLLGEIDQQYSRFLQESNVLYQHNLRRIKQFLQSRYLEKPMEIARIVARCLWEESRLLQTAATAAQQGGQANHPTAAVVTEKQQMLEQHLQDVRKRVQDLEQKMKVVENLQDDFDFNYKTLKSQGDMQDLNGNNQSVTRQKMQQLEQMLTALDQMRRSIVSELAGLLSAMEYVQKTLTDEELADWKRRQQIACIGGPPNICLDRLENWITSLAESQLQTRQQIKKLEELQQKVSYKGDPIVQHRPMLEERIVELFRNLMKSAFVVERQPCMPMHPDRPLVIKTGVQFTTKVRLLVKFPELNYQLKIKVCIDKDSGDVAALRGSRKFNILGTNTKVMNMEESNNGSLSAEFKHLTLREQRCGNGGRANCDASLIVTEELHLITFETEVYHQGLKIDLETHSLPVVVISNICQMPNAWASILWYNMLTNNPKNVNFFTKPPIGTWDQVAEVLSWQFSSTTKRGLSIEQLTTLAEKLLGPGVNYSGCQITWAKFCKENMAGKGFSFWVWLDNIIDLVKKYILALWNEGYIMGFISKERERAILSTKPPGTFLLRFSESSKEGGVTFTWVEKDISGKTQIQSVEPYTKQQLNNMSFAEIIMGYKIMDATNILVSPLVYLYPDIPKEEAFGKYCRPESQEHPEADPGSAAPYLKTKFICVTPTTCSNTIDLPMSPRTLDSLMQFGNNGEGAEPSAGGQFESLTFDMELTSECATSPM
# [5] = Inhibition of TNFalpha-stimulated NFkappaB (unknown origin) expressed in mouse NIH-3T3-KBFLuc cells preincubated for 15 mins followed by TNFalpha stimulation for 6 hrs by luciferase reporter gene assay; type: cell-based; settings: Homo sapiens
# NIH3T3 = assay: Cytotoxicity against mouse NIH/3T3 cells infected with lentivirus encoding nuclear restricted red fluorescent protein assessed as reduction in cell viability up to 100 uM after 6 hrs by microscopic method; type: cell-based; settings: nih3t3, 6 h
# U-251 [6] = assay: Antiproliferative activity against human U251 cells at 50 uM after 48 hrs by sulforhodamine B assay relative to control; type: functional; settings: U-251, 48 h
# PC-3 [7] = assay: Antiproliferative activity against human PC3 cells at 50 uM after 48 hrs by sulforhodamine B assay relative to control; type: functional; settings: PC-3, 48 h
# K562 [8] = assay: Antiproliferative activity against human K562 cells at 50 uM after 48 hrs by sulforhodamine B assay relative to control; type: functional; settings: K562, 48 h
# K562 [9] = assay: Antiproliferative activity against human K562 cells after 48 hrs by sulforhodamine B assay; type: functional, cell-based; settings: K562, 48 h
# HCT-15 [10] = assay: Antiproliferative activity against human HCT15 cells at 50 uM after 48 hrs by sulforhodamine B assay relative to control; type: functional; settings: HCT-15, 48 h
# HCT-15 [11] = assay: Antiproliferative activity against human HCT15 cells after 48 hrs by sulforhodamine B assay; type: functional, cell-based; settings: HCT-15, 48 h
# MCF7 [12] = assay: Antiproliferative activity against human MCF7 cells at 50 uM after 48 hrs by sulforhodamine B assay relative to control; type: functional; settings: MCF7, 48 h
# SK-LU-1 [13] = assay: Antiproliferative activity against human SK-LU-1 cells at 50 uM after 48 hrs by sulforhodamine B assay relative to control; type: functional; settings: SK-LU-1, 48 h
# SK-LU-1 [14] = assay: Antiproliferative activity against human SK-LU-1 cells after 48 hrs by sulforhodamine B assay; type: functional, cell-based; settings: SK-LU-1, 48 h
# HaCaT [15] = assay: Induction of ROS accumulation in human HaCaT cells at 10 to 100 uM by CM-H2DCFDA dye-based fluorescence assay; type: functional, cell-based
# Mus musculus = species: Mus musculus; assay: Inhibition of IKK in mouse NIH-3T3-KBF-Luc cells assesed as downregulation of TNFalpha-stimulated phospho-IkappaBalpha protein expression levels at 10 to 100 uM preincubated for 15 mins followed by TNFalpha stimulation for 20 mins by Western blot analysis
# HaCaT [16] = assay: Antioxidant activity in human HaCaT cells assessed as inhibition of TBHP-induced ROS accumulation by measuring ROS level at 10 uM preincubated with cells followed by TBHP addition by CM-H2DCFDA dye-based fluorescence assay relative to control; type: functional; parameters: scale not given: the % may be the effect or the level left
# HaCaT [17] = assay: Antioxidant activity in human HaCaT cells assessed as inhibition of TBHP-induced ROS accumulation by measuring ROS level at 25 uM preincubated with cells followed by TBHP addition by CM-H2DCFDA dye-based fluorescence assay relative to control; type: functional; parameters: scale not given: the % may be the effect or the level left
# HaCaT [18] = assay: Antioxidant activity in human HaCaT cells assessed as inhibition of TBHP-induced ROS accumulation by measuring ROS level at 50 uM preincubated with cells followed by TBHP addition by CM-H2DCFDA dye-based fluorescence assay relative to control; type: functional; parameters: scale not given: the % may be the effect or the level left
# HaCaT [19] = assay: Antioxidant activity in human HaCaT cells assessed as inhibition of TBHP-induced ROS accumulation by measuring ROS level at 75 uM preincubated with cells followed by TBHP addition by CM-H2DCFDA dye-based fluorescence assay relative to control; type: functional; parameters: scale not given: the % may be the effect or the level left
# HaCaT [20] = assay: Antioxidant activity in human HaCaT cells assessed as inhibition of TBHP-induced ROS accumulation by measuring ROS level at 100 uM preincubated with cells followed by TBHP addition by CM-H2DCFDA dye-based fluorescence assay relative to control; type: functional; parameters: scale not given: the % may be the effect or the level left
# U-251 [21] = assay: Antiproliferative activity against human U251 cells after 48 hrs by sulforhodamine B assay; type: functional, cell-based; settings: U-251, 48 h
# PC-3 [22] = assay: Antiproliferative activity against human PC3 cells after 48 hrs by sulforhodamine B assay; type: functional, cell-based; settings: PC-3, 48 h
# MCF7 [23] = assay: Antiproliferative activity against human MCF7 cells after 48 hrs by sulforhodamine B assay; type: functional, cell-based; settings: MCF7, 48 h
# [24] = Cytotoxicity against human gingival fibroblasts assessed as decrease in cell viability at 50 uM after 48 hrs by sulforhodamine B dye-based assay relative to control; settings: gingival fibroblast
# [25] = Cytotoxicity against human gingival fibroblasts assessed as decrease in cell viability at 50 uM after 48 hrs by sulforhodamine B dye-based assay; settings: gingival fibroblast
IC50 (K562 [9]) [µM],IC50 (HCT-15 [11]) [µM],IC50 (SK-LU-1 [14]) [µM],IC50 (MCF7 [23]) [µM],Structure (SMILES),inhibition [2] [%],fold change (FC) [3],inhibition [4] [%],IC50 [5] [µM],Activity (NIH3T3),inhibition at 50 µM (U-251 [6]) [%],inhibition at 50 µM (PC-3 [7]) [%],inhibition at 50 µM (K562 [8]) [%],inhibition at 50 µM (HCT-15 [10]) [%],inhibition at 50 µM (MCF7 [12]) [%],inhibition at 50 µM (SK-LU-1 [13]) [%],IC50 (U-251 [21]) [µM],IC50 (PC-3 [22]) [µM],Activity [24] [%],further results
–,–,–,–,CC(=O)N[C@@H](CS)C(=O)O [ACETYLCYSTEINE],–,–,–,–,–,–,–,–,–,–,–,–,–,–,Activity (HaCaT [1]): 1%
–,–,–,–,Cc1cc2c(C(C)C)ccc(C)c2cc1O,61.5,1.7,3.5,16.5,Non-Toxic,–,–,–,–,–,–,–,–,–,–
–,–,–,–,CC1=CC[C@H](C(C)C)c2cc(C)c(O)cc21,50.8,3.1,2.1,72,Non-Toxic,–,–,–,–,–,–,–,–,–,–
30.9,40.3,33.9,–,CC1=CC[C@H](C(C)C)c2cc(C)c(OC(=O)c3ccc(C)cc3)cc21,76,9.4,3.1,47.1,Non-Toxic,67.7,49.6,100,78.9,65,85.4,–,–,–,Activity (HaCaT [15]): inactive; inhibition (Mus musculus): Active; Activity (HaCaT [16]): 74.7%; Activity (HaCaT [17]): 64.5%; Activity (HaCaT [18]): 55.8%; Activity (HaCaT [19]): 52%; Activity (HaCaT [20]): 25.9%
8.37,12,10.2,8.2,Cc1ccc(C(=O)Oc2cc3c(C)ccc(C(C)C)c3cc2C)cc1,30.3,1.8,2.9,–,–,100,72.3,100,86.5,90.2,100,22.8,23.7,13.37,–
2.28,7.88,9.37,7.9,Cc1cc2c(C(C)C)ccc(C)c2cc1OC(=O)c1ccc([N+](=O)[O-])cc1,18.5,1.8,1.6,–,–,100,100,100,97.6,100,100,7.75,17.6,43.03,–

Structure (SMILES),IC50 (K562 [9]) [µM],IC50 (HCT-15 [11]) [µM],IC50 (SK-LU-1 [14]) [µM],IC50 (MCF7 [23]) [µM],inhibition [2] [%],fold change (FC) [3],inhibition [4] [%],IC50 [5] [µM],Activity (NIH3T3),inhibition at 50 µM (U-251 [6]) [%],inhibition at 50 µM (PC-3 [7]) [%],inhibition at 50 µM (K562 [8]) [%],inhibition at 50 µM (HCT-15 [10]) [%],inhibition at 50 µM (MCF7 [12]) [%],inhibition at 50 µM (SK-LU-1 [13]) [%],IC50 (U-251 [21]) [µM],IC50 (PC-3 [22]) [µM],Activity [24] [%],further results
Cc1cc2c(C(C)C)ccc(C)c2cc1OC(=O)Nc1ccccc1,14,3.88,10.1,–,13.3,1.4,3,–,–,100,44.7,100,84.7,100,90.4,15.8,8.62,–,Activity [25]: Non-Toxic
CC1=CC[C@H](C(C)C)c2cc(C)c(OC(=O)Nc3ccccc3)cc21,0.3,0.03,0.12,4.05,4.2,1.6,3.3,–,–,100,93.2,92.6,92,75.1,100,0.46,7.93,38.24,–
